Where two headings read alike, the source gives them in different places.
Experiments:
[1] = Log P measurement by HPLC on reversed phase columns (EEC directive 79/831 Annex V.A8); assay type: physicochemical; conditions: LC-UV; for chromatographic logP: reversed phase HPLC column
Protocol: [table] Measurement of Log P values was performed according to EEC directive 79/831 Annex V.A8 by HPLC (High Performance Liquid Chromatography) on reversed phase columns with the following methods: If more than one Log P value is available within the same method, all the values are given and separated by “+”. […] Lambda-max-values were determined using UV-spectra from 200 nm to 400 nm and the peak values of the chromatographic signals.

Phakopsora pachyrhizi = assay: In vivo preventive test on Phakopsora (soybeans); parameters: species or system Phakopsora pachyrhizi (soybean rust) on soybeans; conditions: 168 h, young soybean plants sprayed, 10 ppm of active ingredient, evaluated 7 days after inoculation, 0% = untreated control, 100% = no disease, read-out: efficacy
Protocol: Example: In Vivo Preventive Test on Phakopsora Test (Soybeans)
To produce a suitable preparation of active compound, 1 part by weight of active compound is mixed with the stated amounts of solvent and emulsifier, and the concentrate is diluted with water to the desired concentration.
To test for preventive activity, young plants are sprayed with the preparation of active compound at the stated rate of application. After the spray coating has dried on, the plants are inoculated with an aqueous spore suspension of the causal agent of soybean rust (Phakopsora pachyrhizi) and stay for 24 h without light in an incubation cabinet at approximately 24° C. and a relative atmospheric humidity of 95%.
The plants remain in the incubation cabinet at approximately 24° C. and a relative atmospheric humidity of approximately 80% and a day/night interval of 12 h.
The test is evaluated 7 days after the inoculation. 0% means an efficacy which corresponds to that of the untreated control, while an efficacy of 100% means that no disease is observed.

[2] = acidic range, 0.1% formic acid in water and acetonitrile as eluent (linear gradient 10% to 95% acetonitrile)
[3] = neutral range, 0.001 molar ammonium acetate solution in water and acetonitrile as eluent (linear gradient 10% to 95% acetonitrile)
[4] = acidic range, 0.1% formic acid in water and acetonitrile as eluent (linear gradient 10% to 95% acetonitrile), read-out: LogP [a]
[5] = neutral range, 0.001 molar ammonium acetate solution in water and acetonitrile as eluent (linear gradient 10% to 95% acetonitrile), read-out: LogP [b]

CCN(C)C=Nc1cc(Cl)c(Cc2ccccc2OC)cc1C [Example 29]
LogP [a] [1, 2]: 1.58^[a];
LogP [b] [1, 3]: 4.95^[b]

CCN(C)C=Nc1cc(C)c(Cc2ccccc2C#N)cc1C [Example 8, N′-[4-[(2-cyanophenyl)methyl]-2,5-dimethylphenyl]-N-ethyl-N-methylmethanimidamide]
chromatographic logP [1, 4]: 1.47
chromatographic logP [1, 5]: 4.15
pest or weed control at 10 ppm (Phakopsora pachyrhizi): 90 to 100%

CCN(C)C=Nc1cc(Cl)c(Cc2ccc(F)cc2F)cc1C [Example 22, N′-[5-chloro-4-[(2,4-difluorophenyl)methyl]-2-methylphenyl]-N-ethyl-N-methylmethanimidamide]
chromatographic logP [1, 4]: 1.63
pest or weed control at 10 ppm (Phakopsora pachyrhizi): 90 to 100%

Cc1cc(N=CN(C)C(C)C)c(C)cc1Cc1ccc(F)cc1F [Example 12, N′-[4-[(2,4-difluorophenyl)methyl]-2,5-dimethylphenyl]-N-isopropyl-N-methylmethanimidamide]
chromatographic logP [1, 4]: 1.92
chromatographic logP [1, 5]: 5.31
pest or weed control at 10 ppm (Phakopsora pachyrhizi): 90 to 100%

C=C(c1ccccc1)c1cc(C)c(N=CN(C)CC)cc1Cl [Example 19, N′-[5-chloro-2-methyl-4-(1-phenylethen-1-yl)phenyl]-N-ethyl-N-methylmethanimidamide]
chromatographic logP [1, 4]: 1.58
chromatographic logP [1, 5]: 5.24
pest or weed control at 10 ppm (Phakopsora pachyrhizi): 80 to 89%

CCN(C)C=Nc1cc(Cl)c(Cc2ccccc2-c2ccccc2)cc1C [Example 25, N′-[5-chloro-2-methyl-4-[(2-phenylphenyl)methyl]phenyl]-N-ethyl-N-methylmethanimidamide]
chromatographic logP [1, 4]: 2.05
chromatographic logP [1, 5]: 6.02

CCN(C)C=Nc1cc(C)c(C2(c3ccccc3)CC2(Br)Br)cc1C (stereo not drawn) [Example 16, N′-[4-(2,2-dibromo-1-phenylcyclopropyl)-2,5-dimethylphenyl]-N-ethyl-N-methylmethanimidamide]
chromatographic logP [1, 4]: 1.89

CCN(C)C=Nc1cc(Cl)c(Cc2ccccc2C#N)cc1C [Example 4, N′-[5-chloro-4-[(2-cyanophenyl)methyl]-2-methylphenyl]-N-ethyl-N-methylmethanimidamide]
chromatographic logP [1, 4]: 1.38
chromatographic logP [1, 5]: 4.38

CCN(C)C=Nc1cc(F)c(Cc2ccccc2OC)cc1C [Example 32, N-ethyl-N′-[5-fluoro-4-[(2-methoxyphenyl)methyl]-2-methylphenyl]-N-methylmethanimidamide]
chromatographic logP [1, 4]: 1.46
chromatographic logP [1, 5]: 4.34

CCN(C)C=Nc1cc(C)c(Cc2ccccc2C#N)cc1Cl [Example 1, N′-[2-chloro-4-[(2-cyanophenyl)methyl]-5-methylphenyl]-N-ethyl-N-methylmethanimidamide]
chromatographic logP [1, 4]: 1.41
chromatographic logP [1, 5]: 3.86
pest or weed control at 10 ppm (Phakopsora pachyrhizi): 80 to 89%

CCN(C)C=Nc1cc(C)c(C(C)c2ccccc2)cc1Cl (stereo not drawn) [Example 27, N′-[2-chloro-5-methyl-4-(1-phenylethyl)phenyl]-N-ethyl-N-methylmethanimidamide]
chromatographic logP [1, 4]: 1.61
chromatographic logP [1, 5]: 4.7

CCN(C)C=Nc1cc(C)c(C2(c3ccccc3)CC2(Cl)Cl)cc1C (stereo not drawn) [Example 15, N′-[4-(2,2-dichloro-1-phenylcyclopropyl)-2,5-dimethylphenyl]-N-ethyl-N-methylmethanimidamide]
chromatographic logP [1, 4]: 1.83

CCN(C)C=Nc1cc(C)c(Cc2ccc(F)cc2F)cc1Cl [Example 21, N′-[2-chloro-4-[(2,4-difluorophenyl)methyl]-5-methylphenyl]-N-ethyl-N-methylmethanimidamide]
chromatographic logP [1, 4]: 1.86
chromatographic logP [1, 5]: 4.6
pest or weed control at 10 ppm (Phakopsora pachyrhizi): 90 to 100%

CCN(C)C=Nc1cc(C)c(C2(c3ccccc3)CC2(F)F)cc1C (stereo not drawn) [Example 14, N′-[4-(2,2-difluoro-1-phenylcyclopropyl)-2,5-dimethylphenyl]-N-ethyl-N-methylmethanimidamide]
chromatographic logP [1, 4]: 1.63
pest or weed control at 10 ppm (Phakopsora pachyrhizi): 90 to 100%

CCN(C)C=Nc1cc(Cl)c(Cc2cccc(F)c2F)cc1C [Example 24, N′-[5-chloro-4-[(2,3-difluorophenyl)methyl]-2-methylphenyl]-N-ethyl-N-methylmethanimidamide]
chromatographic logP [1, 4]: 1.63
chromatographic logP [1, 5]: 4.92
pest or weed control at 10 ppm (Phakopsora pachyrhizi): 90 to 100%

CCN(C)C=Nc1cc(C)c(Cc2ccccc2OC)cc1Cl [Example 26, N′-[2-chloro-4-[(2-methoxyphenyl)methyl]-5-methylphenyl]-N-ethyl-N-methylmethanimidamide]
chromatographic logP [1, 4]: 1.53
chromatographic logP [1, 5]: 4.45

CCN(C)C=Nc1cc(C)c(Cc2ccccc2Cl)cc1Cl [Example 28, N′-[2-chloro-4-[(2-chlorophenyl)methyl]-5-methylphenyl]-N-ethyl-N-methylmethanimidamide]
chromatographic logP [1, 4]: 1.63
chromatographic logP [1, 5]: 4.93

CCN(C)C=Nc1cc(C)c(Cc2ccccc2)cc1C [Example 11, N′-(4-benzyl-2,5-dimethylphenyl)-N-ethyl-N-methylmethanimidamide]
chromatographic logP [1, 4]: 1.58
chromatographic logP [1, 5]: 4.9
pest or weed control at 10 ppm (Phakopsora pachyrhizi): 90 to 100%

CCN(C)C=Nc1cc(C)c(Cc2ccccc2F)cc1C [Example 10, N-ethyl-N′-[4-[(2-fluorophenyl)methyl]-2,5-dimethylphenyl]-N-methylmethanimidamide]
chromatographic logP [1, 4]: 1.6
chromatographic logP [1, 5]: 4.87
pest or weed control at 10 ppm (Phakopsora pachyrhizi): 90 to 100%

CCN(C)C=Nc1cc(F)c(Cc2ccccc2)cc1C [Example 20, N′-(4-benzyl-5-fluoro-2-methylphenyl)-N-ethyl-N-methylmethanimidamide]
chromatographic logP [1, 4]: 2
chromatographic logP [1, 5]: 4.62
pest or weed control at 10 ppm (Phakopsora pachyrhizi): 90 to 100%

C=C(c1ccccc1)c1cc(Cl)c(N=CN(C)CC)cc1C [Example 31, N′-[2-chloro-5-methyl-4-(1-phenylethen-1-yl)phenyl]-N-ethyl-N-methylmethanimidamide]
chromatographic logP [1, 4]: 1.66
chromatographic logP [1, 5]: 4.93

CCN(C)C=Nc1cc(C)c(C2(c3ccccc3)CC2)cc1C [Example 13, N′-[2,5-dimethyl-4-(1-phenylcyclopropyl)phenyl]-N-ethyl-N-methylmethanimidamide]
chromatographic logP [1, 4]: 1.85
pest or weed control at 10 ppm (Phakopsora pachyrhizi): 90 to 100%

CCN(C)C=Nc1cc(F)c(Cc2ccccc2F)cc1C [Example 33, N-ethyl-N′-[5-fluoro-4-[(2-fluorophenyl)methyl]-2-methylphenyl]-N-methylmethanimidamide]
chromatographic logP [1, 4]: 1.41
chromatographic logP [1, 5]: 4.37

CCN(C)C=Nc1cc(C)c(Cc2ccccc2F)cc1Cl [Example 2, N′-[2-chloro-4-[(2-fluorophenyl)methyl]-5-methylphenyl]-N-ethyl-N-methylmethanimidamide]
chromatographic logP [1, 4]: 1.52
chromatographic logP [1, 5]: 4.5
pest or weed control at 10 ppm (Phakopsora pachyrhizi): 90 to 100%

CCN(C)C=Nc1cc(Cl)c(C(C)c2ccccc2)cc1C (stereo not drawn) [Example 18, N′-[5-chloro-2-methyl-4-(1-phenylethyl)phenyl]-N-ethyl-N-methylmethanimidamide]
chromatographic logP [1, 4]: 1.58
chromatographic logP [1, 5]: 5.32
pest or weed control at 10 ppm (Phakopsora pachyrhizi): 90 to 100%

CCN(C)C=Nc1cc(Cl)c(Cc2ccccc2F)cc1C [Example 5]
LogP [a] [1, 2]: 1.58[a];
LogP [b] [1, 3]: 2.99[b]

CCN(C)C=Nc1cc(Cl)c(Cc2ccccc2Cl)cc1C [Example 30, N′-[5-chloro-4-[(2-chlorophenyl)methyl]-2-methylphenyl]-N-ethyl-N-methylmethanimidamide]
chromatographic logP [1, 4]: 1.81
chromatographic logP [1, 5]: 5.55
pest or weed control at 10 ppm (Phakopsora pachyrhizi): 90 to 100%

CCN(C)C=Nc1cc(C)c(Cc2ccc(F)cc2F)cc1C [Example 9, N′-[4-[(2,4-difluorophenyl)methyl]-2,5-dimethylphenyl]-N-ethyl-N-methylmethanimidamide]
chromatographic logP [1, 4]: 1.79
chromatographic logP [1, 5]: 4.86
pest or weed control at 10 ppm (Phakopsora pachyrhizi): 90 to 100%

CCN(C)C=Nc1cc(F)c(C(C)c2ccccc2)cc1C (stereo not drawn) [Example 34, N-ethyl-N′-[5-fluoro-2-methyl-4-(1-phenylethyl)phenyl]-N-methylmethanimidamide]
chromatographic logP [1, 4]: 1.55
chromatographic logP [1, 5]: 4.63

CCN(C)C=Nc1cc(C)c(Cc2ccccc2)cc1Cl [Example 3, N′-(4-benzyl-2-chloro-5-methylphenyl)-N-ethyl-N-methylmethanimidamide]
chromatographic logP [1, 4]: 1.49
pest or weed control at 10 ppm (Phakopsora pachyrhizi): 90 to 100%

CCN(C)C=Nc1cc(C)c(Cc2ccccc2Cl)cc1C [Example 7, N′-[4-[(2-chlorophenyl)methyl]-2,5-dimethylphenyl]-N-ethyl-N-methylmethanimidamide]
chromatographic logP [1, 4]: 1.92
chromatographic logP [1, 5]: 5.16

CCN(C)C=Nc1cc(F)c(Cc2ccc(F)cc2F)cc1C [Example 35, N′-[4-[(2,4-difluorophenyl)methyl]-5-fluoro-2-methylphenyl]-N-ethyl-N-methylmethanimidamide]
chromatographic logP [1, 4]: 1.52
chromatographic logP [1, 5]: 4.54

Reference: patent US20190308933A1, “PHENYLAMIDINES AND THE USE THEREOF AS FUNGICIDES” (priority 2016, published 2019)
